Data as given in ChEMBL document CHEMBL3600303, “The N-Terminal T-T Motif of a Third-Generation HIV-1 Fusion Inhibitor Is Not Required for Binding Affinity and Antiviral Activity” (J Med Chem, 2015).

How the values were obtained:
[1] = test system: Human immunodeficiency virus 1; experiment: Ratio of IC50 for ENF-resistant HIV1 NL4-3 harboring gp41 N-terminal heptad repeat V38M mutant to IC50 for ENF-resistant HIV1 NL4-3 harboring gp41 N-terminal heptad repeat D36G mutant; format: functional
[2] = test system: Human immunodeficiency virus 1; experiment: Ratio of IC50 for ENF-resistant HIV1 NL4-3 harboring gp41 N-terminal heptad repeat V38M mutant to IC50 for wild type HIV1 NL4-3; format: functional
[3] = test system: Human immunodeficiency virus 1; experiment: Ratio of IC50 for ENF-resistant HIV1 NL4-3 harboring gp41 N-terminal heptad repeat V38A/N42T double mutant to IC50 for wild type HIV1 NL4-3; format: functional
[4] = test system: Human immunodeficiency virus 1; experiment: Antiviral activity against ENF-resistant HIV1 NL4-3 harboring gp41 N-terminal heptad repeat I37T/N43K double mutant infected in human TZM-bl cells assessed as inhibition of viral entry into cells after 48 hrs by single-cycle infection assay; format: functional, organism-based
[5] = test system: Human immunodeficiency virus 1; experiment: Antiviral activity against ENF-resistant HIV1 NL4-3 harboring gp41 N-terminal heptad repeat I37T mutant infected in human TZM-bl cells assessed as inhibition of viral entry into cells after 48 hrs by single-cycle infection assay; format: functional, organism-based
[6] = test system: Human immunodeficiency virus 1; experiment: Ratio of IC50 for ENF-resistant HIV1 NL4-3 harboring gp41 N-terminal heptad repeat D36S/V38M double mutant to IC50 for wild type HIV1 NL4-3; format: functional
[7] = test system: Human immunodeficiency virus 1; experiment: Antiviral activity against ENF-resistant HIV1 NL4-3 harboring gp41 N-terminal heptad repeat D36G mutant infected in human TZM-bl cells assessed as inhibition of viral entry into cells after 48 hrs by single-cycle infection assay; format: functional, organism-based
[8] = test system: Human immunodeficiency virus 1; experiment: Ratio of IC50 for ENF-resistant HIV1 NL4-3 harboring gp41 N-terminal heptad repeat D36G mutant to IC50 for wild type HIV1 NL4-3; format: functional
[9] = test system: Human immunodeficiency virus 1; experiment: Antiviral activity against ENF-resistant HIV1 NL4-3 harboring gp41 N-terminal heptad repeat D36S/V38M double mutant infected in human TZM-bl cells assessed as inhibition of viral entry into cells after 48 hrs by single-cycle infection assay; format: functional, organism-based
[10] = test system: Human immunodeficiency virus 1; experiment: Ratio of IC50 for ENF-resistant HIV1 NL4-3 harboring gp41 N-terminal heptad repeat Q40H mutant to IC50 for ENF-resistant HIV1 NL4-3 harboring gp41 N-terminal heptad repeat D36G mutant; format: functional
[11] = test system: Human immunodeficiency virus 1; experiment: Ratio of IC50 for ENF-resistant HIV1 NL4-3 harboring gp41 N-terminal heptad repeat D36S/V38M double mutant to IC50 for ENF-resistant HIV1 NL4-3 harboring gp41 N-terminal heptad repeat D36G mutant; format: functional
[12] = test system: Human immunodeficiency virus 1; experiment: Antiviral activity against ENF-resistant HIV1 NL4-3 harboring gp41 N-terminal heptad repeat Q40H mutant infected in human TZM-bl cells assessed as inhibition of viral entry into cells after 48 hrs by single-cycle infection assay; format: functional, organism-based
[13] = test system: Human immunodeficiency virus 1; experiment: Ratio of IC50 for ENF-resistant HIV1 NL4-3 harboring gp41 N-terminal heptad repeat V38A/N42T double mutant to IC50 for ENF-resistant HIV1 NL4-3 harboring gp41 N-terminal heptad repeat D36G mutant; format: functional
[14] = test system: Human immunodeficiency virus 1; experiment: Ratio of IC50 for ENF-resistant HIV1 NL4-3 harboring gp41 N-terminal heptad repeat I37T mutant to IC50 for ENF-resistant HIV1 NL4-3 harboring gp41 N-terminal heptad repeat D36G mutant; format: functional
[15] = test system: Human immunodeficiency virus 1; experiment: Ratio of IC50 for ENF-resistant HIV1 NL4-3 harboring gp41 N-terminal heptad repeat V38A mutant to IC50 for wild type HIV1 NL4-3; format: functional
[16] = test system: Human immunodeficiency virus 1; experiment: Ratio of IC50 for ENF-resistant HIV1 NL4-3 harboring gp41 N-terminal heptad repeat N43K mutant to IC50 for ENF-resistant HIV1 NL4-3 harboring gp41 N-terminal heptad repeat D36G mutant; format: functional
[17] = test system: Human immunodeficiency virus 1; experiment: Ratio of IC50 for ENF-resistant HIV1 NL4-3 harboring gp41 N-terminal heptad repeat V38A mutant to IC50 for ENF-resistant HIV1 NL4-3 harboring gp41 N-terminal heptad repeat D36G mutant; format: functional
[18] = test system: Human immunodeficiency virus 1; experiment: Ratio of IC50 for ENF-resistant HIV1 NL4-3 harboring gp41 N-terminal heptad repeat I37T/N43K double mutant to IC50 for ENF-resistant HIV1 NL4-3 harboring gp41 N-terminal heptad repeat D36G mutant; format: functional
[19] = test system: Human immunodeficiency virus 1; experiment: Antiviral activity against ENF-resistant HIV1 NL4-3 harboring gp41 N-terminal heptad repeat V38A/N42T double mutant infected in human TZM-bl cells assessed as inhibition of viral entry into cells after 48 hrs by single-cycle infection assay; format: functional, organism-based
[20] = test system: Human immunodeficiency virus 1; experiment: Antiviral activity against ENF-resistant HIV1 NL4-3 harboring gp41 N-terminal heptad repeat N43K mutant infected in human TZM-bl cells assessed as inhibition of viral entry into cells after 48 hrs by single-cycle infection assay; format: functional, organism-based
[21] = test system: Human immunodeficiency virus 1; experiment: Antiviral activity against ENF-resistant HIV1 NL4-3 harboring gp41 N-terminal heptad repeat V38M mutant infected in human TZM-bl cells assessed as inhibition of viral entry into cells after 48 hrs by single-cycle infection assay; format: functional, organism-based
[22] = test system: Human immunodeficiency virus 1; experiment: Ratio of IC50 for ENF-resistant HIV1 NL4-3 harboring gp41 N-terminal heptad repeat I37T mutant to IC50 for wild type HIV1 NL4-3; format: functional
[23] = test system: Human immunodeficiency virus 1; experiment: Ratio of IC50 for ENF-resistant HIV1 NL4-3 harboring gp41 N-terminal heptad repeat I37T/N43K double mutant to IC50 for wild type HIV1 NL4-3; format: functional
[24] = test system: Human immunodeficiency virus 1; experiment: Ratio of IC50 for ENF-resistant HIV1 NL4-3 harboring gp41 N-terminal heptad repeat N43K mutant to IC50 for wild type HIV1 NL4-3; format: functional
[25] = test system: Human immunodeficiency virus 1; experiment: Ratio of IC50 for wild type HIV1 NL4-3 to IC50 for ENF-resistant HIV1 NL4-3 harboring gp41 N-terminal heptad repeat D36G mutant; format: functional
[26] = test system: Human immunodeficiency virus 1; experiment: Antiviral activity against wild type HIV1 NL4-3 infected in human TZM-bl cells assessed as inhibition of viral entry into cells after 48 hrs by single-cycle infection assay; format: functional, organism-based; conditions: Human immunodeficiency virus 1, NL4-3, TZM-bl
[27] = test system: Human immunodeficiency virus 1; experiment: Antiviral activity against ENF-resistant HIV1 NL4-3 harboring gp41 N-terminal heptad repeat V38A mutant infected in human TZM-bl cells assessed as inhibition of viral entry into cells after 48 hrs by single-cycle infection assay; format: functional, organism-based
[28] = test system: Human immunodeficiency virus 1; experiment: Ratio of IC50 for ENF-resistant HIV1 NL4-3 harboring gp41 N-terminal heptad repeat Q40H mutant to IC50 for wild type HIV1 NL4-3; format: functional

enfuvirtide
Ratio IC50 [1]: 29.4 | Ratio IC50 [2]: 3 | Ratio IC50 [3]: >25 | IC50 [4]: > 2250 nM | IC50 [5]: 618 nM | Ratio IC50 [6]: 2.7 | IC50 [7]: 9.1 nM | Ratio IC50 [8]: 0.1 | IC50 [9]: 240 nM | Ratio IC50 [10]: 159.8 | Ratio IC50 [11]: 26.4 | IC50 [12]: 1450 nM | Ratio IC50 [13]: 247.3 | Ratio IC50 [14]: 68 | Ratio IC50 [15]: 7.9 | Ratio IC50 [16]: 51.3 | Ratio IC50 [17]: 77.9 | Ratio IC50 [18]: 247.3 | IC50 [19]: > 2250 nM | IC50 [20]: 467 nM | IC50 [21]: 268 nM | Ratio IC50 [22]: 6.9 | Ratio IC50 [23]: >25 | Ratio IC50 [24]: 5.2 | Ratio IC50 [25]: 9.9 | IC50 [26]: 90.2 nM | IC50 [27]: 709 nM | Ratio IC50 [28]: 16.1
